The numbers were not newly measured in patent US20260284070A1, “Ophthalmic Solution of Brinzolamide” (Micro Labs Limited, priority 2023, published 2026), which cites them from elsewhere.

For the series the following is noted: physiological pH (pH 6.0 to 7.5).

With `CCN[C@H]1CN(CCCOC)S(=O)(=O)c2sc(S(N)(=O)=O)cc21` [Brinzolamide, (R)-(+)-4-Ethylamino-2-(3-methoxypropyl)-3,4-dihydro-2H-thieno[3,2-e]-1,2-thiazine-6-sulfonamide-1,1-dioxide], the Solubility entry is recorded as “very limited solubility”.
